In paper PMC6273635, “Synthesis and Structure-Activity Relationships of Imidazole-Coumarin Conjugates against Hepatitis C Virus” (Molecules, 2016):
Where two headings read alike, the source gives them in different places.

Tests used:
[1] = system: HCV genotype 1b subgenomic Huh 5-2 replicon system; assay: Antiviral effect on HCV 1b subgenomic replicon replication in Huh 5-2 cells; type: cell-based, Hepatitis C virus
Experimental: (§1) The antiviral activity of conjugated compounds 3a–g, 7a–e, 9a,b,d–f, and 11b,e,f in the HCV genotype 1b subgenomic Huh 5-2 replicon system was evaluated according to established procedures. On the basis of the dose-response curves that were obtained, the concentration of a compound that inhibited virus replication by 50% (i.e., EC50) and the concentration of compound that reduced host cell metabolism by 50% (i.e., CC50) were obtained. These values subsequently allowed us to calculate the selectivity index (i.e., SI = CC50/EC50), which is a measure for the therapeutic window of the compound in an assay system. […] The observed antiviral effect of other compounds was most likely related mainly to the pleiotropic or aspecific effect on the host cell.

[2] = Anti-metabolic effect on host cell metabolism (MTS method) in Huh 5-2 replicon cells; type: cell-based; conditions: human, Huh 5-2 cells (HCV genotype 1b subgenomic replicon), concentration reducing host cell metabolism by 50%, average of triplicate determinations
Experimental: as §1

[3] = system: Huh 5-2 cells; assay: Anti-metabolic effect on host cell metabolism (MTS method) in Huh 5-2 replicon cells; type: cell-based; conditions: concentration reducing host cell metabolism by 50%, average of triplicate determinations
Experimental: as §1

[4] = system: Huh 5-2 cells; design: method as in PMID 17977606; conditions: host cell metabolism, MTS method, reference known compounds, ref [11]; cited from earlier work
[5] = system: HCV genotype 1b subgenomic Huh 5-2 replicon system; design: method as in PMID 17977606; conditions: HCV 1b subgenomic replicon in Huh 5-2 cells; reference known compounds; ref [11]; cited from earlier work

SMILES	EC50 ([1]; Hepatitis C virus, Huh-5-2) [µM]	CC50 [2] [µM]	melting point [°C]	EC50 ([1]; concentration inhibiting virus replication by 50%, real-time quantitative RT-PCR, HCV 1b Huh 5-2 replicon, average of triplicate determinations, read-out: EC50) [µM]	CC50 [3] [µM]	CC50 [4] [µM]	EC50 [5] [µM]
Nc1nc2c(nc(SCc3cc4cc(F)ccc4oc3=O)n2[C@@H]2O[C@H](CO)[C@@H](O)[C@H]2O)c(=O)[nH]1 [Compound 11b, 8-[(6′-Fluorocoumarin-3′-yl)methylthio]guanosine]	102	102					
O=c1oc2ccc(Cl)cc2cc1CSc1nccn1[C@@H]1O[C@H](CO)[C@@H](O)[C@H]1O [Compound 7c, 1-(β-D-Ribofuranos-1″-yl)-2-[(6′-chlorocoumarin-3′-yl)methylthio]imidazole]	14	85	178.8 to 179.6				
COc1cccc2cc(CSc3nccn3[C@@H]3O[C@H](CO)[C@@H](O)[C@H]3O)c(=O)oc12 [Compound 7e, 1-(β-D-Ribofuranos-1″-yl)-2-[(8′-methoxycoumarin-3′-yl)methylthio]imidazole]	34	119	169.6 to 170.4				
c1c[nH]cn1 [imidazole]				> 150	> 500		
O=c1oc2ccccc2cc1CSc1nccn1[C@@H]1O[C@H](CO)[C@@H](O)[C@H]1O [Compound 7a, 1-(β-D-Ribofuranos-1″-yl)-2-[(coumarin-3′-yl)methylthio]imidazole]	59	128	164.6 to 165.4				
O=c1oc2ccccc2cc1CSc1nc2ccccc2[nH]1 [Compound 12a]						90	27
COc1cccc2cc(CSc3nc4c(=O)[nH]cnc4n3[C@@H]3O[C@H](CO)[C@@H](O)[C@H]3O)c(=O)oc12 [Compound 9e, 8-[(8′-Methoxycoumarin-3′-yl)methylthio]inosine]	102	102					
O=c1oc2ccc(Br)cc2cc1CSc1nccn1[C@@H]1O[C@H](CO)[C@@H](O)[C@H]1O [Compound 7d, 1-(β-D-Ribofuranos-1″-yl)-2-[(6′-bromocoumarin-3′-yl)methylthio]imidazole]	19	107	188.8 to 189.4				
O=c1oc2ccc(Br)cc2cc1CSc1nc2c(=O)[nH]cnc2n1[C@@H]1O[C@H](CO)[C@@H](O)[C@H]1O [Compound 9d, 8-[(6′-Bromocoumarin-3′-yl)methylthio]inosine]	70	93					
O=c1oc2ccc(F)cc2cc1CSc1nccn1[C@@H]1O[C@H](CO)[C@@H](O)[C@H]1O [Compound 7b, 1-(β-D-Ribofuranos-1″-yl)-2-[(6′-fluorocoumarin-3′-yl)methylthio]imidazole]	26	122	171.2 to 172.4				
O=c1ccc2ccccc2o1 [coumarin]	> 150	> 500					
O=c1oc2ccccc2cc1CSc1nc2c(=O)[nH]cnc2n1[C@@H]1O[C@H](CO)[C@@H](O)[C@H]1O [Compound 9a, 8-[(Coumarin-3′-yl)methylthio]inosine]	61	109					
O=c1oc2ccc(F)cc2cc1CSc1nc2c(=O)[nH]cnc2n1[C@@H]1O[C@H](CO)[C@@H](O)[C@H]1O [Compound 9b, 8-[(6′-Fluorocoumarin-3′-yl)methylthio]inosine]	73	105					
Cc1ccc2oc(=O)c(CSc3nc4c(=O)[nH]c(N)nc4n3[C@@H]3O[C@H](CO)[C@@H](O)[C@H]3O)cc2c1 [Compound 11f, 8-[(6′-Methylcoumarin-3′-yl)methylthio]guanosine]	103	103					
O=c1oc2ccc(Cl)cc2cc1CSc1ncc[nH]1 [Compound 3c, 2-[(6′-Chlorocoumarin-3′-yl)methylthio]imidazole]	9.7	85	266.2 to 270				
Cc1ccc2oc(=O)c(CSc3nc4c(=O)[nH]cnc4n3[C@@H]3O[C@H](CO)[C@@H](O)[C@H]3O)cc2c1 [Compound 9f, 8-[(6′-Methylcoumarin-3′-yl)methylthio]inosine]	106	106					
O=c1oc2ccc(F)cc2cc1CSc1ncc[nH]1 [Compound 3b, 2-[(6′-Fluorocoumarin-3′-yl)methylthio]imidazole]	7.2	83	258.6 to 259.4				
COc1cccc2cc(CSc3nc4ccccc4[nH]3)c(=O)oc12 [Compound 12e]						27	10
O=c1oc2ccc(Br)cc2cc1CSc1nc2ccccc2[nH]1 [Compound 12d]						42	4
Cn1ccnc1SCc1cc2cc(Cl)ccc2oc1=O [Compound 3g, 1-Methyl-2-[(6′-chlorocoumarin-3′-yl)methylthio]imidazole]	15	75	256.2 to 257.2				
COc1cccc2cc(CSc3ncc[nH]3)c(=O)oc12 [Compound 3e, 2-[(8′-Methoxycoumarin-3′-yl)methylthio]imidazole]	8.4	173	269.8 to 270.6				
COc1cccc2cc(CSc3nc4c(=O)[nH]c(N)nc4n3[C@@H]3O[C@H](CO)[C@@H](O)[C@H]3O)c(=O)oc12 [Compound 11e, 8-[(8′-Methoxycoumarin-3′-yl)methylthio]guanosine]	99	99					
O=c1oc2ccc(Br)cc2cc1CSc1ncc[nH]1 [Compound 3d, 2-[(6′-Bromocoumarin-3′-yl)methylthio]imidazole]	5.1	75	276.8 to 277.4				
O=c1oc2ccccc2cc1CSc1ncc[nH]1 [Compound 3a, 2-[(Coumarin-3’-yl)methylthio]imidazole]	30	122	252 to 252.8				
Cn1ccnc1SCc1cc2ccccc2oc1=O [Compound 3f, 1-Methyl-2-[(coumarin-3′-yl)methylthio]imidazole]	6.7	49	244.2 to 244.8				
